The values that follow come from patent publication US10329542B2, “HBV RNAse H purification and enzyme inhibitors” (Saint Louis University, priority 2012, dated 2019).

Read-outs that look alike come from different tables or passages of the source.

As usually defined, the Inhibition is how much of the control response was suppressed. Read a low Inhibition as a response near the control. Broadly, the IC50 is the concentration needed to halve the response being measured.

Series [1] has as its system HBV. Briefly: HBV genomic replication assays (Table 2). It counts as cell-based, Hepatitis B virus. Particulars: class by active concentration. In outline:
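Huh7 cells transfected with HBV plasmid received compound at 10 or 50 μM, refreshed every 1-2 days. Core-particle DNA isolated 4-5 days post-transfection was analysed by Southern blot, with or without RNaseH. For the screen, replicating cells got 60, 20 or 6.7 μM, refreshed days 1-2, and plus-strand DNA was quantified on day 3 by cross-gap TaqMan PCR.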

The target of series [2] is T1, chimeric HBV:HIV RNAseH HHC1 (Hepatitis B virus genotype D subtype ayw, UniProt P03156, DELINS787-795[…]/INS679M).
T1 construct: HHC1 is an HRHPL derivative; made in house; host or cells: E. coli BL21 codon+
Description: Oligonucleotide-directed RNAseH cleavage assay, chimeric HHC1. Particulars: 10 μM; ± standard deviation, 3 to 7 replicates. It counts as biochemical. The source says:
pCMV-HBV-LE-(CMV-HBV) is an HBV over-length genomic expression vector containing 1.2 copies of the HBV(adw2) genome (Genbank X02763.1) downstream of the CMV promoter cloned into pBS (Promega). Surface protein expression from this vector is ablated by mutating the preS and S open reading frames. pCMV-HBV(genotype D) is an analogous HBV genomic expression construct and was a gift from Dr. Shuping Tong (Brown University). For bacterial expression, codon-optimized cDNA sequences for HRHPL (genotypes A, B, C, D, and H), and noncodon-optimized sequences for HHC1 and HHC2 were cloned by gene synthesis (Genscript) between the NcoI and EcoRI sites into pTrcHis2B (Invitrogen) with a C-terminal hexahistidine tag. HRHPL contains HBV genotype D (Genbank V01460) polymerase residues 684-845. HHC1 is an HRHPL derivative in which HBV polymerase residues 800-808 were replaced with HIV residues corresponding to the RNAseH helix D ([…]; SEQ ID NO:6). HHC2 is an HRHPL derivative in which HBV polymerase residues 800-845 were replaced with HIV residues corresponding to the RNAseH helix D to the C-terminus ([…]; SEQ ID NO:7). The human RNAseH1 gene (NP_002927.2) was cloned with an N-terminal hexahistidine-tag between the BamHI and XhoI sites of pRsetB (Invitrogen) by gene synthesis.
(§1) For the oligonucleotide-directed RNAseH cleavage assay (Gong et al., 2001), 6 μl protein extract (typical protein concentration 2.8 mg/ml) was mixed with 0.5 μg internally ^32P-labeled DRF+ RNA (nucleotides 2401-2605 of the duck HBV genome plus 60 nucleotides of flanking sequences from pBluescript) and 3 μg oligonucleotide D2507- or its corresponding negative control D2526+ on ice in 20 μl under the conditions in Table 1. Some reactions in FIG. 5 employed oligonucleotide D2543M-Sal or its D2453+ negative control as indicated. The reactions were incubated at 42° C. for 90 min. and terminated by addition of Laemmli protein loading buffer and boiling. The samples were resolved by 12% SDS-PAGE, the gels were stained with Coomassie blue to monitor protein loading, and labeled RNA was detected by autoradiography. Candidate inhibitors were dissolved in DMSO and added at the indicated concentrations during assembly of the reactions. Control reactions lacking the compounds contained DMSO as a vehicle control. The RNAseH autoradiograms were scanned and quantified with ImageJ. The oligonucleotides were: D2526+([…]; SEQ ID NO:8), D2507-([…]; SEQ ID NO:9), D2453+([…]; SEQ ID NO:10), and D2543M-Sal ([…]; SEQ ID NO:11).

Another series has as its system HBV genotype H RNAseH. Description: Oligonucleotide-directed RNAseH cleavage assay, HBV genotype H. Particulars: 10 μM; ± standard deviation, 3 to 7 replicates. In kind it is biochemical, Hepatitis B virus. Here is the method: as §1
Oligonucleotide-directed RNAseH cleavage assays (Gong et al., 2001) were performed as described (Tavis et al., 2013). Briefly, HBV RNAseH extracts were mixed with a 264 nt-long internally ^32P-labeled RNA plus an excess of a complementary DNA oligonucleotide or its inverse-complement as a negative control in a final concentration of 65 mM Tris pH 8.0, 190 mM NaCl, 5 mM MgCl2, 5 mM dTT, 0.05% NP40, and 6% glycerol. βTJ was dissolved in DMSO and added at the indicated concentrations; the final concentration of DMSO in all reactions was 1%. The reactions were incubated at 42° C. for 90 min. and terminated by addition of Laemmli protein electrophoresis buffer. The samples were resolved by SDS-PAGE, labeled RNA was detected by autoradiography, the autoradiograms were scanned, and the RNA cleavage products were quantified with ImageJ (National Institutes of Health). IC50 values were calculated by non-linear regression using GraphPad Prism (GraphPad Software, Inc.).

Series [3] has as its target T2, HBV genotype D RNAseH (HRHPL) (Hepatitis B virus genotype D subtype ayw, UniProt P03156, INS679M).
T2 construct: HRHPL contains HBV genotype D (Genbank V01460) polymerase residues 684-845; made in house; host or cells: E. coli BL21 codon+
Description: Oligonucleotide-directed RNAseH cleavage assay, HBV genotype D. In kind it is biochemical. The note with it: for Residual activity at 10 uM, Genotype D: ± standard deviation, 3 to 7 replicates; for Activity vs. HBV Biochemical vs. gtD: class by concentration giving inhibition (10, 20, 60 μM).

The target of series [4] is HCV RNA-directed RNA polymerase (Hepatitis C virus genotype 1a, UniProt P27958). Description: Primed homopolymeric RNA (poly-G) synthesis assay. It counts as biochemical. Particulars: 10 μM. Here is the method: FIGS. 9A-C. Specificity of anti-HBV RNAseH compounds. (FIG. 9A) Inhibition of HBV genotype D RNAseH by irrelevant compounds at 10 μM in the oligonucleotide-directed RNAseH assay. Compound #4 was employed as an example HBV RNAseH inhibitor. […] The ability of compounds #5, 6 and 8 to inhibit production of poly-G by the HCV RNA-directed RNA polymerase was measured in a primed homopolymeric RNA synthesis assay (Cao, et al., 2011. The compounds were employed at 10 μM. DMSO, vehicle control. (FIG. 9C) Dose-responsiveness of HBV RNAseH inhibition. The effects of compounds #6, 8, and 12 on the RNAseH activity of HRHPL (genotype D) were measured at concentrations ranging from 0.5 to 50 μM. The dose-response profile is plotted for compound #12.

Another series deals with rat hepatocytes. Particulars: cited from earlier work.
The target of a further series is T3, human RNAseH1 (Homo sapiens, UniProt O60930).
T3 construct: hexahistidine (N); made in house; host or cells: E. coli BL21 codon+
T3 sequence (O60930 1-286): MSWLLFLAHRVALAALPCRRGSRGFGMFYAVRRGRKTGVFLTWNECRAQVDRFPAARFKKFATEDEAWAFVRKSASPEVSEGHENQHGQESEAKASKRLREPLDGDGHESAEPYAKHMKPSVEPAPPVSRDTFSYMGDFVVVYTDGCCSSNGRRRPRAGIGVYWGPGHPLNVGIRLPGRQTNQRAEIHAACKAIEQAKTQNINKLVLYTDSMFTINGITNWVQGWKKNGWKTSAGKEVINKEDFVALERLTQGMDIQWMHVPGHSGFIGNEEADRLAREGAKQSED
Briefly: Oligonucleotide-directed RNAseH assay, recombinant human RNAseH1. It counts as biochemical. The note with it: class by concentration giving inhibition (10, 20, 60 μM). The procedure, abridged: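 His-tagged human RNAseH1, expressed in E. coli and titrated to an activity matching the HBV enzyme, was incubated with internally 32P-labelled RNA plus a complementary DNA oligonucleotide. Reactions ran for 90 min at 42 °C in 65 mM Tris pH 8.0, 190 mM NaCl and 5 mM MgCl2, with 1% DMSO. Cleavage was measured by SDS-PAGE autoradiography.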

The next series concerns HBV genotype C RNAseH. Briefly: Oligonucleotide-directed RNAseH cleavage assay, HBV genotype C. In kind it is biochemical, Hepatitis B virus. The note with it: class by concentration giving inhibition (10, 20, 60 μM). Here is the method:
as §1
Incremental improvements were developed in extraction of the HBV RNAseH from the bacterial cell pellets since the data were generated for Examples 1 and 2. Key among these was shifting from using a cup sonicator to a probe sonicator and reducing the duration of the sonication period from 3×60 second bursts to 3×20 second bursts. When the […] genotype C clone that had inconsistent activity under the old extraction conditions (FIG. 6C) was isolated under these conditions, it became consistently and robustly active (FIG. 16).

Series [5] relates to HBV. Briefly: Quantitative PCR screen of HBV plus-polarity DNA accumulation. It counts as cell-based, Hepatitis B virus. Particulars: 60, 20, or 6.7 μM; DNA isolated day 3. Here is the method: This assay was employed to screen 7 compounds for their ability to suppress HBV replication (FIG. 17). […] Fresh medium containing compound was provided on days 1 and 2, and capsid-associated HBV DNAs were isolated on day 3. HBV plus-strand DNAs were measured using the cross-gap TaqMan PCR assay.
Plus-polarity preferential quantitative TaqMan PCR for the HBV DNA was conducted employing forward primer […] […] PCR was conducted on purified HBV capsid-derived nucleic acids for 40 cycles of 95° C. for 15 sec. and 65° C. for 1 min. employing the TaqMan universal PCR master mix (Applied Biosystems). Results were standardized against serial dilutions of cloned HBV DNA. The EC50 was estimated by linear regression of the real-time PCR data.

For series [6] the following is noted: mice and rats, doses 10 to 58 times those used in humans; cited from earlier work.
For a further series, the target named is HIV-1 RNAseH (Human immunodeficiency virus type 1 group M subtype B, UniProt P04585). Particulars: read-out: IC50 against the HIV RNAseH; cited from earlier work.
Where [7] appears, read: rat hepatocytes, Nakagawa and Tayama, 1998.

Consider `Cc1cc(C)c(C#N)c(=N)o1` [Compound 5], for which, in the series on HBV [1], the “Activity vs. HBV Genomic Replication” value was “− (− no activity at 60 μM)”. Besides, the “Residual activity at 10 uM, HHC1” value in series [2] was 36 ± 6 Percent DMSO control. In addition, in the series with HBV genotype H RNAseH, the “Residual activity at 10 uM, Genotype H” value was determined as 76 ± 14 Percent DMSO control. In [3], the “Residual activity at 10 uM, Genotype D” value was found to be 42 ± 15 Percent DMSO control and the “Activity vs. HBV Biochemical vs. gtD” value is “+ (+ inhibition at 60 μM)”. In addition, the “Inhibition of poly-G production by HCV RNA polymerase” value in [4] was “do not significantly inhibit”.
Consider `CCOC(=O)c1sc(NC(=O)CSc2nnc(Cc3ccccc3)o2)c(C#N)c1C` [Compound 6], for which the “Activity vs. HBV Genomic Replication” value with HBV [1] is reported as “− (− no activity at 60 μM)”. Also, in series [2], the “Residual activity at 10 uM, HHC1” value is given as 55 ± 23 Percent DMSO control. Also, the “Residual activity at 10 uM, Genotype H” value in the series on HBV genotype H RNAseH amounted to 81 ± 24 Percent DMSO control. In series [3], the “Residual activity at 10 uM, Genotype D” value came to 40 ± 16 Percent DMSO control and the “Activity vs. HBV Biochemical vs. gtD” value is on record as “+ (+ inhibition at 60 μM)”. Besides, the Inhibition in series [3] (at 50 μM) turned out to be 75%. Further, the Inhibition plateau in series [3] (between 3 and 40 μM) is reported as 20-30%. In series [4], the “Inhibition of poly-G production by HCV RNA polymerase” value is “do not significantly inhibit”.
For `CC(C)c1cccc(O)c(=O)c1` [Compound 47, beta-thujaplicin], the Mitochondrial toxicity result in the series with rat hepatocytes (setting [7]) is “mitochondrial toxicity has been reported”. For the same compound, at human RNAseH1, the “Activity vs. human RNAseH1” value is recorded as “− (− no inhibition at 60 μM)”. In addition, in the series with HBV [1], the “Activity vs. HBV Genomic Replication” value is given as “− (− no activity at 60 μM)”. Moreover, the “Activity vs. HBV Biochemical vs. gtC” value in the series on HBV genotype C RNAseH is on record as “− (− no inhibition at 60 μM)”. For the same compound, the “Suppression of HBV plus-polarity DNA accumulation” value (shortened to “Suppression”) in the series with HBV [5] is listed as “did not suppress HBV plus-polarity DNA accumulation”. In addition, in series [3], the “Activity vs. HBV Biochemical vs. gtD” value was “+++ (+++ inhibition at 10 μM)”.
For the compound `O=c1cccccc1O` [Compound 53, Tropolone], in the series on rat hepatocytes, the Mitochondrial toxicity result is “mitochondrial toxicity has been reported”. For the same compound, the “Activity vs. human RNAseH1” value on human RNAseH1 is listed as “− (− no inhibition at 60 μM)”. For the same compound, the “Activity vs. HBV Genomic Replication” value in the series with HBV [1] was “− (− no activity at 60 μM)”. In addition, in the series on HBV [5], the “Suppression” value is “inhibited accumulation of HBV plus-polarity DNA to lesser extents”. In addition, the “Activity vs. HBV Biochemical vs. gtD” value in [3] is “++ (++ inhibition at 20 μM)”.
In the case of `Nc1ccn([C@H]2CS[C@@H](CO)O2)c(=O)n1` [Lamivudine, 2′,3′-dideoxy-3′-thiacytidine], the Carcinogenicity or mutagenicity result in series [6] is listed as “no evidence of carcinogenicity or mutagenicity”.
On to `O=c1cccccc1` [tropone, reference compound], for which the Mitochondrial toxicity entry with rat hepatocytes (setting [7]) is “mitochondrial toxicity has been reported”.
In the case of `CC(C)c1ccccc(=O)c1O` [α-thuaplicin, reference compound], the IC50 at HIV-1 RNAseH was 50 µM.
In the case of Manicol [Compound 56], the “Activity vs. human RNAseH1” value at human RNAseH1 is reported as “− (− no inhibition at 60 μM)”. Moreover, in the series on HBV [1], the “Activity vs. HBV Genomic Replication” value is listed as “+ (+, activity detectable at >10 μM)”. Also, the “Activity vs. HBV Biochemical vs. gtC” value in the series on HBV genotype C RNAseH is given as “+++ (+++ inhibition at 10 μM)”. Besides, the IC50 on HIV-1 RNAseH was 60 µM. Besides, the “Suppression” value with HBV [5] is recorded as “inhibited accumulation of HBV plus-polarity DNA to lesser extents”. Moreover, the “Activity vs. HBV Biochemical vs. gtD” value in series [3] is on record as “+++ (+++ inhibition at 10 μM)”.
